Each compound was assayed against T1, Caspase-1 (Mus musculus) (UniProt P29452) (assay: Binding affinity against mouse Caspase-1). Settings: not given.
T1 sequence (whole entry): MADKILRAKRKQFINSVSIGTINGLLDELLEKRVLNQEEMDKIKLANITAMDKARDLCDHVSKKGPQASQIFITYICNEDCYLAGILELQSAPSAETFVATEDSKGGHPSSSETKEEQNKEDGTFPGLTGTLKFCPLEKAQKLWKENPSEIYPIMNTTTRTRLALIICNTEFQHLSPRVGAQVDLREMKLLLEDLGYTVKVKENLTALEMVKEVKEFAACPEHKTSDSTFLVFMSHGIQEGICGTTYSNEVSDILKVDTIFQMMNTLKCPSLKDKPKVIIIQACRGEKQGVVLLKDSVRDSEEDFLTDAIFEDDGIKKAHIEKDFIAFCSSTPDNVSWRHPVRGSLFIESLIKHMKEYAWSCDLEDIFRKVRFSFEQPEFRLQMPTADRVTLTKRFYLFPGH
`CC(C)[C@H](NC(=O)COc1cccc2ccccc12)C(=O)N[C@@H](CC(=O)O)C(=O)COc1nccc2ccccc12` was tested, and the k3/ki was 360 1/m/s. `CC(C)[C@H](NC(=O)COc1cccc2ccccc12)C(=O)N[C@@H](CC(=O)O)C(=O)CSC1=NCCS1` was tested, and the k3/ki was 186 1/m/s. For `CC(C)[C@H](NC(=O)COc1cccc2ccccc12)C(=O)N[C@@H](CC(=O)O)C(=O)CSc1nncn1C`, the k3/ki was 180 1/m/s. In the case of `CC(C)[C@H](NC(=O)COc1cccc2ccccc12)C(=O)N[C@@H](CC(=O)O)C(=O)COc1cc(C(F)(F)F)ncn1`, the k3/ki is reported as 479 1/m/s. For `Cc1cc(C)nc(SCC(=O)[C@H](CC(=O)O)NC(=O)[C@@H](NC(=O)COc2cccc3ccccc23)C(C)C)n1`, the k3/ki was 950 1/m/s. For `CC(C)[C@H](NC(=O)COc1cccc2ccccc12)C(=O)N[C@@H](CC(=O)O)C(=O)COc1ccc2ccccc2n1`, the k3/ki was 67 1/m/s. In the case of `Cc1nnc(SCC(=O)[C@H](CC(=O)O)NC(=O)[C@@H](NC(=O)COc2cccc3ccccc23)C(C)C)s1`, the k3/ki is reported as 5480 1/m/s. `CC(C)[C@H](NC(=O)COc1cccc2ccccc12)C(=O)N[C@@H](CC(=O)O)C(=O)CSc1ccccn1` was tested, and the k3/ki was 0 1/m/s. With `CC(C)[C@H](NC(=O)COc1cccc2ccccc12)C(=O)N[C@@H](CC(=O)O)C(=O)COc1ccncn1` the k3/ki was 0 1/m/s.

Each compound was assayed against T2, Caspase-6 (Homo sapiens) (UniProt P55212) (assay: Binding affinity against Caspase-6). Settings: not given.
T2 sequence (whole entry): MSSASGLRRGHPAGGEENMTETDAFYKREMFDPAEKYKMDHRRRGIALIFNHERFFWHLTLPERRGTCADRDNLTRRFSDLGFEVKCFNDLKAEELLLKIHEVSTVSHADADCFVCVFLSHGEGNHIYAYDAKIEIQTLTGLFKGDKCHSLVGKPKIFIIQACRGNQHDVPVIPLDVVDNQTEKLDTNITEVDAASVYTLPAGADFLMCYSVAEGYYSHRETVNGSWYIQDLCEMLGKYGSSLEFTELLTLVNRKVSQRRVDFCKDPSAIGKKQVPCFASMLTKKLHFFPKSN
In the case of `CC(C)[C@H](NC(=O)COc1cccc2ccccc12)C(=O)N[C@@H](CC(=O)O)C(=O)COc1nccc2ccccc12`, the k3/ki is reported as 462 1/m/s. For `CC(C)[C@H](NC(=O)COc1cccc2ccccc12)C(=O)N[C@@H](CC(=O)O)C(=O)CSC1=NCCS1`, the k3/ki was 228 1/m/s. For `CC(C)[C@H](NC(=O)COc1cccc2ccccc12)C(=O)N[C@@H](CC(=O)O)C(=O)CSc1nncn1C`, the k3/ki was 221 1/m/s. `CC(C)[C@H](NC(=O)COc1cccc2ccccc12)C(=O)N[C@@H](CC(=O)O)C(=O)COc1cc(C(F)(F)F)ncn1` was tested, and the k3/ki was 156 1/m/s. With `Cc1cc(C)nc(SCC(=O)[C@H](CC(=O)O)NC(=O)[C@@H](NC(=O)COc2cccc3ccccc23)C(C)C)n1` the k3/ki was 656 1/m/s. `CC(C)[C@H](NC(=O)COc1cccc2ccccc12)C(=O)N[C@@H](CC(=O)O)C(=O)COc1ccc2ccccc2n1` was tested, and the k3/ki was 0 1/m/s. For `Cc1nnc(SCC(=O)[C@H](CC(=O)O)NC(=O)[C@@H](NC(=O)COc2cccc3ccccc23)C(C)C)s1`, the k3/ki was 83 1/m/s. With `CC(C)[C@H](NC(=O)COc1cccc2ccccc12)C(=O)N[C@@H](CC(=O)O)C(=O)CSc1ccccn1` the k3/ki was 0 1/m/s. In the case of `CC(C)[C@H](NC(=O)COc1cccc2ccccc12)C(=O)N[C@@H](CC(=O)O)C(=O)COc1ccncn1`, the k3/ki is reported as 0 1/m/s.

These compounds were tested against T3, Caspase-3 (Homo sapiens) (UniProt P42574) (assay: Binding affinity against Caspase-3). Settings: not given.
T3 sequence (whole entry): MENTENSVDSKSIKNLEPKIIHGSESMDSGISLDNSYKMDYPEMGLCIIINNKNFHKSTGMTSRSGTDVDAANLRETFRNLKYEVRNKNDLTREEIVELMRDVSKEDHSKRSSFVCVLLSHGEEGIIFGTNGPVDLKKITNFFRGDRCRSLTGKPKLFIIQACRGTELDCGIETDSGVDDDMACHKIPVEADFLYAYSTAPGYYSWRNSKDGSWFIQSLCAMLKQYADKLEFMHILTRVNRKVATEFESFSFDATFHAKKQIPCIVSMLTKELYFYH
With `CC(C)[C@H](NC(=O)COc1cccc2ccccc12)C(=O)N[C@@H](CC(=O)O)C(=O)COc1nccc2ccccc12` the k3/ki was 1310 1/m/s. For `CC(C)[C@H](NC(=O)COc1cccc2ccccc12)C(=O)N[C@@H](CC(=O)O)C(=O)CSC1=NCCS1`, the k3/ki was 2300 1/m/s. With `CC(C)[C@H](NC(=O)COc1cccc2ccccc12)C(=O)N[C@@H](CC(=O)O)C(=O)CSc1nncn1C` the k3/ki was 2260 1/m/s. `CC(C)[C@H](NC(=O)COc1cccc2ccccc12)C(=O)N[C@@H](CC(=O)O)C(=O)COc1cc(C(F)(F)F)ncn1` was tested, and the k3/ki was 1750 1/m/s. `Cc1cc(C)nc(SCC(=O)[C@H](CC(=O)O)NC(=O)[C@@H](NC(=O)COc2cccc3ccccc23)C(C)C)n1` was tested, and the k3/ki was 7130 1/m/s. `CC(C)[C@H](NC(=O)COc1cccc2ccccc12)C(=O)N[C@@H](CC(=O)O)C(=O)COc1ccc2ccccc2n1` was tested, and the k3/ki was 979 1/m/s. `Cc1nnc(SCC(=O)[C@H](CC(=O)O)NC(=O)[C@@H](NC(=O)COc2cccc3ccccc23)C(C)C)s1` was tested, and the k3/ki was 5240 1/m/s. With `CC(C)[C@H](NC(=O)COc1cccc2ccccc12)C(=O)N[C@@H](CC(=O)O)C(=O)CSc1ccccn1` the k3/ki was 348 1/m/s. With `CC(C)[C@H](NC(=O)COc1cccc2ccccc12)C(=O)N[C@@H](CC(=O)O)C(=O)COc1ccncn1` the k3/ki was 0 1/m/s.

What follows are compounds tested on Jurkat (assay: Inhibitory concentration for cellular activity in jurkat assay). Settings: Homo sapiens.
Format: functional, cell-based
In the case of `CC(C)[C@H](NC(=O)COc1cccc2ccccc12)C(=O)N[C@@H](CC(=O)O)C(=O)COc1nccc2ccccc12`, the IC50 is reported as 106 µM. Compound `CC(C)[C@H](NC(=O)COc1cccc2ccccc12)C(=O)N[C@@H](CC(=O)O)C(=O)CSC1=NCCS1` has an IC50 greater than 200 µM. In the case of `CC(C)[C@H](NC(=O)COc1cccc2ccccc12)C(=O)N[C@@H](CC(=O)O)C(=O)CSc1nncn1C`, the IC50 is reported as greater than 200 µM. `CC(C)[C@H](NC(=O)COc1cccc2ccccc12)C(=O)N[C@@H](CC(=O)O)C(=O)COc1cc(C(F)(F)F)ncn1` was tested, and the IC50 was greater than 200 µM. Work on `Cc1cc(C)nc(SCC(=O)[C@H](CC(=O)O)NC(=O)[C@@H](NC(=O)COc2cccc3ccccc23)C(C)C)n1` yielded an IC50 greater than 200 µM. For `CC(C)[C@H](NC(=O)COc1cccc2ccccc12)C(=O)N[C@@H](CC(=O)O)C(=O)COc1ccc2ccccc2n1`, the IC50 was greater than 200 µM. For `Cc1nnc(SCC(=O)[C@H](CC(=O)O)NC(=O)[C@@H](NC(=O)COc2cccc3ccccc23)C(C)C)s1`, the IC50 was 190 µM. `CC(C)[C@H](NC(=O)COc1cccc2ccccc12)C(=O)N[C@@H](CC(=O)O)C(=O)COc1ccncn1` showed an IC50 greater than 200 µM.

These compounds were tested against Caspase-8 (Homo sapiens) (UniProt Q14790) (assay: Binding affinity against Caspase-8). Settings: not given.
Sequence of Caspase-8 (Homo sapiens) (Q14790 217-374 limits assumed): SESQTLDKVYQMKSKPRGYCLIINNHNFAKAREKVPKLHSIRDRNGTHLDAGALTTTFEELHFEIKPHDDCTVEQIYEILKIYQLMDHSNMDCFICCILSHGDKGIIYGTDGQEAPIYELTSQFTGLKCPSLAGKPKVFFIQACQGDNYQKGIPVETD
Sequence of Caspase-8 (Homo sapiens) (Q14790 385-479 limits assumed): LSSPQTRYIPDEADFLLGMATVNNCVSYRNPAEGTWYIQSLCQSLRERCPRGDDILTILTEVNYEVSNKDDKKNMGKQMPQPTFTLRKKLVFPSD
With `CC(C)[C@H](NC(=O)COc1cccc2ccccc12)C(=O)N[C@@H](CC(=O)O)C(=O)COc1nccc2ccccc12` the k3/ki was 177 1/m/s. With `CC(C)[C@H](NC(=O)COc1cccc2ccccc12)C(=O)N[C@@H](CC(=O)O)C(=O)CSC1=NCCS1` the k3/ki was 231 1/m/s. In the case of `CC(C)[C@H](NC(=O)COc1cccc2ccccc12)C(=O)N[C@@H](CC(=O)O)C(=O)CSc1nncn1C`, the k3/ki is reported as 293 1/m/s. For `CC(C)[C@H](NC(=O)COc1cccc2ccccc12)C(=O)N[C@@H](CC(=O)O)C(=O)COc1cc(C(F)(F)F)ncn1`, the k3/ki was 0 1/m/s. In the case of `Cc1cc(C)nc(SCC(=O)[C@H](CC(=O)O)NC(=O)[C@@H](NC(=O)COc2cccc3ccccc23)C(C)C)n1`, the k3/ki is reported as 120 1/m/s. In the case of `CC(C)[C@H](NC(=O)COc1cccc2ccccc12)C(=O)N[C@@H](CC(=O)O)C(=O)COc1ccc2ccccc2n1`, the k3/ki is reported as 9 1/m/s. In the case of `Cc1nnc(SCC(=O)[C@H](CC(=O)O)NC(=O)[C@@H](NC(=O)COc2cccc3ccccc23)C(C)C)s1`, the k3/ki is reported as 0 1/m/s. With `CC(C)[C@H](NC(=O)COc1cccc2ccccc12)C(=O)N[C@@H](CC(=O)O)C(=O)CSc1ccccn1` the k3/ki was 0 1/m/s. In the case of `CC(C)[C@H](NC(=O)COc1cccc2ccccc12)C(=O)N[C@@H](CC(=O)O)C(=O)COc1ccncn1`, the k3/ki is reported as 0 1/m/s.

— ChEMBL document CHEMBL1144434, “Structure-activity relationships within a series of caspase inhibitors. Part 2: Heterocyclic warheads” (Bioorg Med Chem Lett, 2005)
